Experimental data reported in publication PMC6030159 (Scientific Reports, 2018).
Entries after “also recorded” stand apart in the source; their conditions may differ.

Assays:
[1] = test system: SK-N-DZ MYCN-amplified neuroblastoma xenograft tumors; experiment: SK-N-DZ neuroblastoma xenograft tumor model; assay type: in vivo, mouse; conditions: 20 mg/kg i.p. daily, 1–2 weeks, vs vehicle
Procedure: The last dose was administered 3 hrs before termination. […]
Immunohistochemistry. Apoptosis was visualized at the single-cell level on tumor cryosections using the TUNEL method using the In Situ Cell Death Detection Fluorescein-Roche kit and analyzed by fluorescence microscopy. Briefly, tumor cryosections were fixed in 4% paraformaldyde (PFA) and the assay was performed following the instructions from the manufacturer. Negative controls were run using the reagent without the TdT enzyme. Samples were mounted using Vectashield mounting medium (Vector) and DAPI was used as nuclear counterstaining. Cell proliferation and microvascular density (MVD) were evaluated through Ki67 and CD31staining, respectively, on tumor cryosections and detected by immunofluoresence. Visualization and image acquisition was done in a Zeiss microscope, and for panoramic views by a Vectra imaging system. For quantification, areas with positive TUNEL and Ki67 staining were measured using Image J software. For the analysis of MVD, the number of vessel structures per microscopic field was calculated.

HDM2 = test system: HDM2; set-up: method as in PMID 19202599; conditions: cited from earlier work
BCL-XL = test system: T1, BCL-XL; experiment: MST binding to BCL-XL; conditions: 3 µM MYCMI-6, BCL-XL titrated up to 10 μM
T1 construct: purchased Abcam
Procedure: MST was carried out on a Monolith NT.115 with blue/green filters, kindly provided by Luca Jovine, Karolinska Institutet Huddinge, according to manufacturer's protocol (NanoTemper). […] Titration of molecules was carried out in 16 PCR tubes into which a fixed concentration of fluorescent molecule was added. The mixture was applied to capillaries (standard treated, NanoTemper), and scanned in the Monolith NT.115 to measure initial fluorescence of molecule. MST was induced and fluorescence was measured during 40 seconds. Double measurements were carried out (MST power of 20% and 40%, or 40% and 60%) for each sample. Delta fluorescence or relative fluorescence of fluorescent molecule normalized to control vehicle was plotted against titrated molecule concentration. The protein labeling kit GREEN-NHS (NanoTemper) was used to label primary amines of proteins according to manufacture's protocol. page 5: Supplementary Figure Legends Supplemental Figure S1. Schematic presentations of MYC and MAX protein constructs. […] The cells were reseeded and treated with vehicle or 25 μM of each compound, after which fluorescence was measured 24 hours post-treatment and the YFP/CFP ratio calculated and normalized to DMSO-treated cells. […] (12.5 μM) and analyzed as described in C). […]

[2] = test system: MYCN-amplified SK-N-DZ neuroblastoma cells; experiment: Viable/dead cell counting, SK-N-DZ; assay type: cell-based, human; conditions: 12.5 μM, 24 hours
Procedure: Cell proliferation assays. […]
Fluostar (BMG Labtech) in a 96 well plate format. Cell counting was done in 96 well plates with CellTracker Green (ThermoFisher) for 30 min in the incubator, after which DAPI was added for 5 min. Images were taken in the green (FITC) and blue (DAPI) channels using a fluorescence microscope (ImageXpress Micro, Molecular Devices). […]
0.7% agarose. […]

MAX:MAX = experiment: MST MAX:MAX; assay type: binding; conditions: labeled MAX pre-mixed with 1 µM unlabeled MAX
MYC:MAX = test system: T2, MYC:MAX; experiment: Gaussia luciferase complementation (GLuc) MYC:MAX; assay type: cell-based, human; conditions: 25 μM, 17 hours, HEK293 cells
T2 construct: fused to full length MYC (MYC-GLuc-C) and MAX (MAX-GLuc-N), respectively; expressed in transfected cells; host or cells: HEK293
Procedure: The protein fragment complementation assay using the Gaussia luciferase has been described. 0.2–0.4 μg of each GLuc-construct (see Supplementary Information) together with 0.05–0.2 μg pCMV-Luc (Firefly luciferase) were transiently transfected into HEK293 or COS-7 cells in 6-well plates. 24 hours later cells were treated with compound (10–25 μM) or DMSO. After another 17 hours, the cells were harvested and lyzed in passive lysis buffer (Promega) supplemented with complete protease inhibitor (Roche). After 60 min incubation at room temperature 20 μM D-luciferin was added (substrate of Firefly luciferase) and luminescence was measured in a Lumat LB9501 (Berthold) or OmegaFluostar (BMG Labtech) luminometer. Directly after, Gaussia luciferase substrate Coelenterazine (Promega) was added to a final concentration of 20 μM in a mixture with “Stop n’ Glow” (Promega) and the luciferase activity was measured. The ratio between Gaussia and Firefly luciferase values were calculated and normalized to DMSO-treated control cells.

## CCOc1ccc2nc3cc(/N=N/c4ccc(N)nc4N)ccc3c(N)c2c1 [MYCMI-6]
[1]
  apoptotic areas in tumors (TUNEL): dramatic increase
  microvascular density (CD31): significantly reduced
  non-proliferative areas (Ki67): significant increase
  tumor histology (H&E): signs of necrosis and hemorrhage
HDM2
  IC50 for HDM2 relative to MYC:MAX in vitro: approximately 10 fold
BCL-XL
  binding to BCL-XL (MST): did not bind; also recorded: did not observe any binding
[2]
  cell death and cell number, SK-N-DZ: dramatically increased cell death and reduced cell number; also recorded: killed almost 100%
MAX:MAX
  effect on MAX:MAX (MST): minor effects; also recorded: did not inhibit MAX:MAX homodimerization
MYC:MAX
  MYC:MAX GLuc activity: most potent
